Calls of active or inactive are those of the source. For most assays here, no stated cut-off is given here; in the data, actives have a measured Kd and inactives only a lower limit.
How the values were obtained:
Aurora kinase A = molecular target: T1, Aurora kinase A (Homo sapiens, UniProt O14965)
T1 sequence (O14965 whole entry): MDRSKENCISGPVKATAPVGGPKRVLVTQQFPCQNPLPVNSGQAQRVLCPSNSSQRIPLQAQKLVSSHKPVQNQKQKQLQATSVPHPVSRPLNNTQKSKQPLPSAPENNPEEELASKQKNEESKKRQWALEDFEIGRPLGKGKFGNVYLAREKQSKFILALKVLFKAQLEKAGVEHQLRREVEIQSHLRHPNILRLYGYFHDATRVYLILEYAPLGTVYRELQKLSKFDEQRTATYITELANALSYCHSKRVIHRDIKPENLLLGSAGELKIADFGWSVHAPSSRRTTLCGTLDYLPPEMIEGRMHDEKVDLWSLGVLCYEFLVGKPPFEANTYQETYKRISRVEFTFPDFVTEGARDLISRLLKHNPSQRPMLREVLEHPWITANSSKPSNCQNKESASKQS

[1] = molecular target: BMP-2-inducible protein kinase (Homo sapiens, UniProt Q9NSY1)
[2] = molecular target: Bone morphogenetic protein receptor type-1B (Homo sapiens, UniProt O00238)
[3] = molecular target: Calcium/calmodulin-dependent protein kinase type II subunit gamma (Homo sapiens, UniProt Q13555)
[4] = molecular target: ATP-dependent RNA helicase DDX3X (Homo sapiens, UniProt O00571)
[5] = molecular target: Mitogen-activated protein kinase 1 (Homo sapiens, UniProt P28482)
[6] = molecular target: S-adenosylmethionine synthase isoform type-2 (Homo sapiens, UniProt P31153)
[7] = molecular target: T2, Serine/threonine-protein kinase Nek3 (Homo sapiens, UniProt P51956)
T2 sequence (P51956 whole entry): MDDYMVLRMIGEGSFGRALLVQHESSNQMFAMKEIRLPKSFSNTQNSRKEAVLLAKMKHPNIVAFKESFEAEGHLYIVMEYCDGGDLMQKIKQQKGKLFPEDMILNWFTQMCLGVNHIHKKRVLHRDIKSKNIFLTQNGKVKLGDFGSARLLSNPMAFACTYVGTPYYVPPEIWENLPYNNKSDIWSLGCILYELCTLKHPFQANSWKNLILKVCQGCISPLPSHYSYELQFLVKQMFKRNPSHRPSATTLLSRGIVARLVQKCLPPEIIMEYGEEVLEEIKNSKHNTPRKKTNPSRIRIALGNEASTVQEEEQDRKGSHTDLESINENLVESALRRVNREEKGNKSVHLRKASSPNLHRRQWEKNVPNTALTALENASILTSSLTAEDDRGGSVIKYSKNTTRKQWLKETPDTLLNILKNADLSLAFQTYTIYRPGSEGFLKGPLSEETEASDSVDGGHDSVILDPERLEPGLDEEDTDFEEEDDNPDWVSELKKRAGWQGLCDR

[8] = molecular target: Serine/threonine-protein kinase PAK 4 (Homo sapiens, UniProt O96013)
[9] = molecular target: T3, Phosphatidylinositol 5-phosphate 4-kinase type-2 gamma (Homo sapiens, UniProt Q8TBX8)
T3 sequence (Q8TBX8 whole entry): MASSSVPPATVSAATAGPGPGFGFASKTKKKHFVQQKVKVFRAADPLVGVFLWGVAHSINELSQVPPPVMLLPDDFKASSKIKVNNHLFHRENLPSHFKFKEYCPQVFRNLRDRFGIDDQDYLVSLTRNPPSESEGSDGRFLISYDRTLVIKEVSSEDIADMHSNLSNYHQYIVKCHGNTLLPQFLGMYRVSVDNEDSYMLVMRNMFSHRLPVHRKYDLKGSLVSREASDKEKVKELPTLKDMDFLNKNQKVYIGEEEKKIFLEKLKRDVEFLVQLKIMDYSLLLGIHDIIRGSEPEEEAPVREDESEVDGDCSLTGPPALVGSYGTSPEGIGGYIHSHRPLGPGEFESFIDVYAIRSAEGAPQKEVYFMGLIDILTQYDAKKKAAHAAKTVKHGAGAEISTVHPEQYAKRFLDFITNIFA

[10] = molecular target: Ribosomal protein S6 kinase alpha-5 (Homo sapiens, UniProt O75582)
Activated CDC42 kinase 1 = Activated CDC42 kinase 1 (Homo sapiens, UniProt Q07912)
[11] = molecular target: T4, EKC/KEOPS complex subunit TP53RK (Homo sapiens, UniProt Q96S44)
T4 sequence (Q96S44 whole entry): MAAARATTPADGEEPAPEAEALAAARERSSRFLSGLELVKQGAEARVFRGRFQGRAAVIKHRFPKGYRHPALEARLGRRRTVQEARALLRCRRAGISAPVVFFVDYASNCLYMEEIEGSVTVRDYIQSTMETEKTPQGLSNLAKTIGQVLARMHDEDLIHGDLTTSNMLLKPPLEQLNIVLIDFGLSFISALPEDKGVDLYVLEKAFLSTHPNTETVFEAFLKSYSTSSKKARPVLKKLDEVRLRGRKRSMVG

Sequence of BMP-2-inducible protein kinase (Q9NSY1 whole entry): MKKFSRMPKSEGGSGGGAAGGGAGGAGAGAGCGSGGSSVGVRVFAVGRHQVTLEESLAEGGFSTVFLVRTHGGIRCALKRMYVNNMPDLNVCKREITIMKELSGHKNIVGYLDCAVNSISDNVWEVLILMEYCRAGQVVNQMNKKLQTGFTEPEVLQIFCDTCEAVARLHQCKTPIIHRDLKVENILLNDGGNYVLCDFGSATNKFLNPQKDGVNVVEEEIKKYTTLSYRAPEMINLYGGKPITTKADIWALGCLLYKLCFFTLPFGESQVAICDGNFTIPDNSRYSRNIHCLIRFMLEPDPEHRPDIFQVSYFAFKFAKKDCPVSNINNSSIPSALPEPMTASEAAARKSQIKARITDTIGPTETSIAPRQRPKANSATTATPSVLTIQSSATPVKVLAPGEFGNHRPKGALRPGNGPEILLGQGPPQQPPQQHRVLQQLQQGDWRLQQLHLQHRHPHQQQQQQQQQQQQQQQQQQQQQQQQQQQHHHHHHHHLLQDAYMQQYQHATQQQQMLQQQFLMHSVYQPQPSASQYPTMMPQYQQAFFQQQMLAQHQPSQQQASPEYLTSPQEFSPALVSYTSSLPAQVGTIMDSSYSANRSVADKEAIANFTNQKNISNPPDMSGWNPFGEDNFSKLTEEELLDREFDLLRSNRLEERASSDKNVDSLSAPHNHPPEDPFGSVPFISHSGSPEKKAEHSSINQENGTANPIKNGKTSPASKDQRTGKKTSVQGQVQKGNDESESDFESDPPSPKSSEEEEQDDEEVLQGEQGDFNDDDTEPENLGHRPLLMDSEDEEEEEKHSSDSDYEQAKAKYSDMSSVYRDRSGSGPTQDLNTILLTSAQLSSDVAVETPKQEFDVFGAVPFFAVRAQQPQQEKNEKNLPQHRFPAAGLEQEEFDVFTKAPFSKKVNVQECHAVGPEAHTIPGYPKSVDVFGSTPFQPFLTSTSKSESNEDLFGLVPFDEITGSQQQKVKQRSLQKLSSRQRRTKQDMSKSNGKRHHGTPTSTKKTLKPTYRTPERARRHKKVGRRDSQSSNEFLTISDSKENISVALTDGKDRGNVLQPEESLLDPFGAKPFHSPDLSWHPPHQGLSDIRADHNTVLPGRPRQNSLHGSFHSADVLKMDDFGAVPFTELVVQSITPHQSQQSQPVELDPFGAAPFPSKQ
Sequence of S-adenosylmethionine synthase isoform type-2 (P31153 whole entry, canonical isoform): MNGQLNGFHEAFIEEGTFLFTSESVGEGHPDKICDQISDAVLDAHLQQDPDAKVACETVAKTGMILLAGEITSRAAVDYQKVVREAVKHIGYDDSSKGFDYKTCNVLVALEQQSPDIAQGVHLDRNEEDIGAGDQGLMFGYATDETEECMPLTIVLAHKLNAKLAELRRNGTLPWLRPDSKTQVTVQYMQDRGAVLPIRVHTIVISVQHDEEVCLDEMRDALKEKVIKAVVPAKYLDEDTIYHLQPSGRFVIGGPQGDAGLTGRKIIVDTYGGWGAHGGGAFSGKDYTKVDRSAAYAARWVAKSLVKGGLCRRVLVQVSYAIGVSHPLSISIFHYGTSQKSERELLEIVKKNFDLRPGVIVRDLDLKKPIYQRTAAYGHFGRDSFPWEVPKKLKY
Sequence of Calcium/calmodulin-dependent protein kinase type II subunit gamma (Q13555 whole entry): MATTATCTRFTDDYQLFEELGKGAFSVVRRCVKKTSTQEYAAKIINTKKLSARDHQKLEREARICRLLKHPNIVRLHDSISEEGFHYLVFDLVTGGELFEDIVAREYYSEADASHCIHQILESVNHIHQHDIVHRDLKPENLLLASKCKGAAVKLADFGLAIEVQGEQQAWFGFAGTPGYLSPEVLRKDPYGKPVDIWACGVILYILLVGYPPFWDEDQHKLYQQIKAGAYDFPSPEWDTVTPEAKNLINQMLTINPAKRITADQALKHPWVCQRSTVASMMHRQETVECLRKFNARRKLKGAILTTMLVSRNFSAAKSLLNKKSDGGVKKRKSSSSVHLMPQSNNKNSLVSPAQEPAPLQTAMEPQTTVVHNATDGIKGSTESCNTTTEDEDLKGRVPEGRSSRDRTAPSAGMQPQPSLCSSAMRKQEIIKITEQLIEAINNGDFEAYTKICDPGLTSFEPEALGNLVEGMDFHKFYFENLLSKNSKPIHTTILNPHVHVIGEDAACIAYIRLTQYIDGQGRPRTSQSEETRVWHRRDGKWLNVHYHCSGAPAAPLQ
Sequence of ATP-dependent RNA helicase DDX3X (O00571 whole entry): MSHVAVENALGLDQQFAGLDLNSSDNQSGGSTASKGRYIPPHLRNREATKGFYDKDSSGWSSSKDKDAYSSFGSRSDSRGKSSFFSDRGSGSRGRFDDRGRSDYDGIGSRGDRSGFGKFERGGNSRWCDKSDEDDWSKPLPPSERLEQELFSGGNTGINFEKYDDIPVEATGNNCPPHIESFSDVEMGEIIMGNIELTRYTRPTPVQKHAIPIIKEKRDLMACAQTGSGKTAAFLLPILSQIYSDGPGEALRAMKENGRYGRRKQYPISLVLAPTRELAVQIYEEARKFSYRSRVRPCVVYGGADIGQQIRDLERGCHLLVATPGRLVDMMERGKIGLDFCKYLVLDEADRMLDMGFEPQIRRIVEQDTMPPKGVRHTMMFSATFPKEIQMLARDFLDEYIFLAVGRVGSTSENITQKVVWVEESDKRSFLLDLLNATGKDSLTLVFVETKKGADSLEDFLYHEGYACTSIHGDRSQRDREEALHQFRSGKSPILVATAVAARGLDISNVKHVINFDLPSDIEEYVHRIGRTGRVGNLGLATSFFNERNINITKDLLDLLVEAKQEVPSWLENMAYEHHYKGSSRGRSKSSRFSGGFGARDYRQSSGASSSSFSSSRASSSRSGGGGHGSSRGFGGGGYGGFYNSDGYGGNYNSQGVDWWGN
Sequence of Bone morphogenetic protein receptor type-1B (O00238 whole entry): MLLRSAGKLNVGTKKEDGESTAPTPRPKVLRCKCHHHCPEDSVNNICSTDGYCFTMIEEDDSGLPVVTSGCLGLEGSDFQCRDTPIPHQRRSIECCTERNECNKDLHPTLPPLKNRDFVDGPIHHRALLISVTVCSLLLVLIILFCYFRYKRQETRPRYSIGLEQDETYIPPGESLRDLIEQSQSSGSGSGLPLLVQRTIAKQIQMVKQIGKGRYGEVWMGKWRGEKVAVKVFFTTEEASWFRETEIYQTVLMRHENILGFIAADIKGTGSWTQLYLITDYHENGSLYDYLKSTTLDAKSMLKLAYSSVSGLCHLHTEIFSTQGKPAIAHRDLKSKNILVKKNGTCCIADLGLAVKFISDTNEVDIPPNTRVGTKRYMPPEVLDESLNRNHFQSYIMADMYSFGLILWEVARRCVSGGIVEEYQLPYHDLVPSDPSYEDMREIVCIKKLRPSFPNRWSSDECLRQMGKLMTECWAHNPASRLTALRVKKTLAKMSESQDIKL
Sequence of Ribosomal protein S6 kinase alpha-5 (O75582 whole entry): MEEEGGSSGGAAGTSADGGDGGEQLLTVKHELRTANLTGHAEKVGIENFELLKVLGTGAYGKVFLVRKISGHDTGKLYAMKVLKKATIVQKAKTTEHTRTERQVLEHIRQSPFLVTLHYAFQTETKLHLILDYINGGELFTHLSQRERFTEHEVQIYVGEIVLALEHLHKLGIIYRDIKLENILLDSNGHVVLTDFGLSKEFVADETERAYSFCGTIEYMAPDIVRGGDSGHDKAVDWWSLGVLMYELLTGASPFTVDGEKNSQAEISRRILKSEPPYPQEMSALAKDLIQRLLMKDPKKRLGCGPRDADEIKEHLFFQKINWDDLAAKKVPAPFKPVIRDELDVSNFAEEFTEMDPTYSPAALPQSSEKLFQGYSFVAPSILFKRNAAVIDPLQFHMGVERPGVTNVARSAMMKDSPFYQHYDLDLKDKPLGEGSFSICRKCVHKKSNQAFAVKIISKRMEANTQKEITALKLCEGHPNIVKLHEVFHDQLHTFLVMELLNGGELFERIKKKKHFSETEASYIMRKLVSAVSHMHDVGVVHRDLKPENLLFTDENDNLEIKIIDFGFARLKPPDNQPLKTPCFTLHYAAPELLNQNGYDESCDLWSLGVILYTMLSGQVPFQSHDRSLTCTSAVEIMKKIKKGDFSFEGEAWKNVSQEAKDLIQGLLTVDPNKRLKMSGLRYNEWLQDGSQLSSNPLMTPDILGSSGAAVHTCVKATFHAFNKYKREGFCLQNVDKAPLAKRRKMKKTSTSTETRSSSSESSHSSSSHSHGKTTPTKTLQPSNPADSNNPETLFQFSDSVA
Sequence of Serine/threonine-protein kinase PAK 4 (O96013 whole entry): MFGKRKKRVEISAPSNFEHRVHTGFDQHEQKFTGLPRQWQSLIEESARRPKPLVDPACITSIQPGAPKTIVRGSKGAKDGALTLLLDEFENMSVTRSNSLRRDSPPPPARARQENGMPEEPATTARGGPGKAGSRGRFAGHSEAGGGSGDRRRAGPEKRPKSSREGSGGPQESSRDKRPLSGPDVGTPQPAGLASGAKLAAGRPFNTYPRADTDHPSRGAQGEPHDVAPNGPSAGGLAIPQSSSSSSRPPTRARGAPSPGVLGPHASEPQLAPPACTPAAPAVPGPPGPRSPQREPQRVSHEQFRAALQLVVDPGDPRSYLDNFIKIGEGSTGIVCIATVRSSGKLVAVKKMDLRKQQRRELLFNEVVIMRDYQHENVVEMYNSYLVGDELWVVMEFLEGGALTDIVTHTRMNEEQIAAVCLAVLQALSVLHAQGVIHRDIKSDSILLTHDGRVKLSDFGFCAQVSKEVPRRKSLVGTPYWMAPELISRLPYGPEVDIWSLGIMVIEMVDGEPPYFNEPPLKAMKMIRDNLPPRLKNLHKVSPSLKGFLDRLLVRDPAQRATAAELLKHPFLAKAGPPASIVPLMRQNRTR
Sequence of Mitogen-activated protein kinase 1 (P28482 whole entry, canonical isoform): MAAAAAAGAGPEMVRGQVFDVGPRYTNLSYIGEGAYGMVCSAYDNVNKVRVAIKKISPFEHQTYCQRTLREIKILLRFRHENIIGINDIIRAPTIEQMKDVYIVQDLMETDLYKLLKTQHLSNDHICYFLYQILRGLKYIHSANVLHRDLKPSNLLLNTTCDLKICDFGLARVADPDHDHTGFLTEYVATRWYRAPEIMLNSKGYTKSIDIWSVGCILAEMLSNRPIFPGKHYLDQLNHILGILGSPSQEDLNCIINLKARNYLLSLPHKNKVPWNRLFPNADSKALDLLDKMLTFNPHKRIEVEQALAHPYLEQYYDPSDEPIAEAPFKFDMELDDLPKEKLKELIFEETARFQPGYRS

Kd (Aurora kinase A)	Kd [1]	Kd [2]	Kd [3]	Kd [4]	Kd [5]	Kd [6]	Kd [7]	Kd [8]	Kd [9]	Kd [10]	Kd (Activated CDC42 kinase 1)	Kd [11]	SMILES
> 30 µM (inactive)	> 30 µM (inactive)	> 30 µM (inactive)	> 30 µM (inactive)	> 30 µM (inactive)	> 30 µM (inactive)	> 30 µM (inactive)	> 30 µM (inactive)	> 30 µM (inactive)	> 30 µM (inactive)	> 30 µM (inactive)	> 30 µM (inactive)	> 30 µM (inactive)	CNC(=O)c1cc(COc2nnc(Nc3ccc(Cl)cc3)c3ccoc23)ccn1 [TELATINIB]
> 30 µM (inactive)	> 30 µM (inactive)	> 30 µM (inactive)	> 30 µM (inactive)	> 30 µM (inactive)	> 30 µM (inactive)	> 30 µM (inactive)	> 30 µM (inactive)	> 30 µM (inactive)	4.79 µM (active)	> 30 µM (inactive)	> 30 µM (inactive)	1.01 µM (active)	COc1ccc(-c2ccc3ncc4c(c3c2)n(-c2ccc(N3CCNCC3)c(C(F)(F)F)c2)c(=O)n4C)cn1 [BGT-226 FREE BASE]
> 30 µM (inactive)	> 30 µM (inactive)	> 30 µM (inactive)	> 30 µM (inactive)	> 30 µM (inactive)	> 30 µM (inactive)	> 30 µM (inactive)	> 30 µM (inactive)	> 30 µM (inactive)	> 30 µM (inactive)	> 30 µM (inactive)	> 30 µM (inactive)	> 30 µM (inactive)	S=C(NCc1ccc2c(c1)OCO2)N1CCN(c2ncnc3c2oc2ccccc23)CC1 [AMUVATINIB]
> 30 µM (inactive)	> 30 µM (inactive)	> 30 µM (inactive)	> 30 µM (inactive)	> 30 µM (inactive)	> 30 µM (inactive)	> 30 µM (inactive)	> 30 µM (inactive)	> 30 µM (inactive)	> 30 µM (inactive)	> 30 µM (inactive)	> 30 µM (inactive)	> 30 µM (inactive)	C=CC(=O)Nc1cccc(Nc2nc(Nc3ccc(N4CCN(C(C)=O)CC4)cc3OC)ncc2C(F)(F)F)c1 [ROCILETINIB]
> 30 µM (inactive)	> 30 µM (inactive)	> 30 µM (inactive)	> 30 µM (inactive)	> 30 µM (inactive)	> 30 µM (inactive)	> 30 µM (inactive)	> 30 µM (inactive)	> 30 µM (inactive)	> 30 µM (inactive)	> 30 µM (inactive)	> 30 µM (inactive)	> 30 µM (inactive)	C[C@@H]1COC(Nc2ccc3ncnc(Nc4ccc(OCc5nccs5)c(Cl)c4)c3c2)=N1 [VARLITINIB]
> 30 µM (inactive)	56 µM (active)	> 30 µM (inactive)	0.018 µM (active)	> 30 µM (inactive)	> 30 µM (inactive)	> 30 µM (inactive)	> 30 µM (inactive)	> 30 µM (inactive)	> 30 µM (inactive)	> 30 µM (inactive)	> 30 µM (inactive)	> 30 µM (inactive)	CCN1CCN(Cc2ccc(Nc3ncc(F)c(-c4cc(F)c5nc(C)n(C(C)C)c5c4)n3)nc2)CC1 [ABEMACICLIB]
> 30 µM (inactive)	> 30 µM (inactive)	> 30 µM (inactive)	> 30 µM (inactive)	> 30 µM (inactive)	> 30 µM (inactive)	> 30 µM (inactive)	> 30 µM (inactive)	> 30 µM (inactive)	> 30 µM (inactive)	> 30 µM (inactive)	> 30 µM (inactive)	> 30 µM (inactive)	O=c1[nH]c([C@@H]2CCCN2)nc2c1oc1ccc(Cl)cc12
> 30 µM (inactive)	5.75 µM (active)	> 30 µM (inactive)	14.3 µM	> 30 µM (inactive)	> 30 µM (inactive)	> 30 µM (inactive)	> 30 µM (inactive)	> 30 µM (inactive)	> 30 µM (inactive)	> 30 µM (inactive)	> 30 µM (inactive)	2.83 µM (active)	CC[C@@](C)(Nc1ccnc(-c2c[nH]c3ncccc23)n1)C(=O)NCC(F)(F)F [DECERNOTINIB]
> 30 µM (inactive)	> 30 µM (inactive)	> 30 µM (inactive)	> 30 µM (inactive)	> 30 µM (inactive)	> 30 µM (inactive)	> 30 µM (inactive)	> 30 µM (inactive)	> 30 µM (inactive)	> 30 µM (inactive)	> 30 µM (inactive)	> 30 µM (inactive)	> 30 µM (inactive)	CCc1cc2c(cc1N1CCC(N3CCOCC3)CC1)C(C)(C)c1[nH]c3cc(C#N)ccc3c1C2=O [ALECTINIB]
> 30 µM (inactive)	> 30 µM (inactive)	> 30 µM (inactive)	> 30 µM (inactive)	> 30 µM (inactive)	> 30 µM (inactive)	> 30 µM (inactive)	> 30 µM (inactive)	> 30 µM (inactive)	> 30 µM (inactive)	> 30 µM (inactive)	> 30 µM (inactive)	> 30 µM (inactive)	COc1cc2ncnc(Nc3ccc(F)c(Cl)c3)c2cc1NC(=O)/C=C/CN1CCCCC1 [DACOMITINIB ANHYDROUS]

SMILES	Kd (Aurora kinase A)	Kd [1]	Kd [2]	Kd [3]	Kd [4]	Kd [5]	Kd [6]	Kd [7]	Kd [8]	Kd [9]	Kd [10]	Kd (Activated CDC42 kinase 1)	Kd [11]
COc1cc(F)c(F)c(Nc2ccc(I)cc2F)c1NS(=O)(=O)C1(C[C@H](O)CO)CC1 [REFAMETINIB]	> 30 µM (inactive)	> 30 µM (inactive)	> 30 µM (inactive)	> 30 µM (inactive)	> 30 µM (inactive)	> 30 µM (inactive)	> 30 µM (inactive)	> 30 µM (inactive)	> 30 µM (inactive)	> 30 µM (inactive)	> 30 µM (inactive)	> 30 µM (inactive)	> 30 µM (inactive)
Cc1c(NC(=O)OC[C@@H]2COCCN2)cn2ncnc(Nc3ccc4c(cnn4Cc4cccc(F)c4)c3)c12 [AC-480]	> 30 µM (inactive)	> 30 µM (inactive)	> 30 µM (inactive)	> 30 µM (inactive)	> 30 µM (inactive)	> 30 µM (inactive)	> 30 µM (inactive)	> 30 µM (inactive)	> 30 µM (inactive)	> 30 µM (inactive)	> 30 µM (inactive)	> 30 µM (inactive)	> 30 µM (inactive)
COCCN1CCN(Cc2ccc(-c3n[nH]c4c3C(=O)c3c(NC(=O)NN5CCOCC5)cccc3-4)cc2)CC1 [RGB-286638]	> 30 µM (inactive)	0.008 µM (active)	> 30 µM (inactive)	> 30 µM (inactive)	> 30 µM (inactive)	> 30 µM (inactive)	> 30 µM (inactive)	> 30 µM (inactive)	> 30 µM (inactive)	2.18 µM	> 30 µM (inactive)	> 30 µM (inactive)	1.72 µM (active)

From ChEMBL document CHEMBL3991601, “The target landscape of clinical kinase drugs” (Science, 2017)
